We go through eleven compounds from patent publication US4937263A, “Antihypercholesterolemic compounds” (Merck & Co., Inc., priority 1989, dated 1990).

In the assay the test system is HMG-CoA reductase. Nature of the assay: HMG-CoA Reductase Inhibition Assay (in vitro, intrinsic inhibition). The settings on record: IC50 of test compound compared with compactin determined simultaneously, compactin assigned 100; tested as sodium salt of dihydroxy acid form; solubilized rat liver microsomal enzyme. Format: biochemical. Here is the method:
The intrinsic HMG-CoA reductase inhibition activity of the claimed compounds is measured in the in vitro protocol published in J. Med. Chem., 28, p. 347-358 (1985) and described below:
Male Holtzman Sprague-Dawley rats (225-250 g) were kept on reversed lighting and fed Purina rat chow containing 3% cholestyramine for 7 days preceding their sacrifice by CO2 asphyxiation. Livers were removed 6 hours into the dark cycle and used immediately to prepare microsomes. HMG-CoA reductase was solubilized from the freshly prepared microsome by the method of Heller and Shrewsbury [J. Biol. Chem., 1976, 251, 3815] and purified through the second ammonium sulfate precipitation step as described by Kleinsek et al. [Proc. Natl. Acad. Sci. U.S.A., 1977, 74, 1431]. The enzyme preparation was tested for HMG-CoA reductase potency and diluted with 100 mM phosphate buffer (pH 7.2) so that 100 μl of the enzyme solution, when added to the assay control, gave a value of 50,000-60,000 dpm. The enzyme preparation was stored at -80° C.
The assay is essentially the procedure of Shefer et al. [J. Lipid Res., 1972, 13, 402]. The complete assay medium contained the following in a total volume of 0.8 ml: phosphate buffer, pH 7.2, 100 mM; MgCl2, 3 mM; NADP, 3 mM; glucose 6-phosphate, 10 mM; glucose-6-phosphate dehydrogenase, 3 enzyme units; reduced glutathione, 50 mM; HMG-CoA (glutaryl-3-^14 C., New England Nuclear), 0.2 mM (0.1 μCi); and partially purified enzyme stock solution, 100 μL.
Test compounds or compactin (after first being converted to the sodium salt of their dihydroxy acid form in situ by addition of IN NaOH (1 equivalent) were added to the assay system in 10 μL volumes at multiconcentration levels. After a 40 minute incubation at 37° C. with shaking and, exposure to air, the reaction was stopped by the addition of 0.4 mL of 8 N HCl. After an additional 30-minute incubation period at 37° C. to ensure the complete lactonization of mevalonic acid to mevalonolactone, 0.2 ml of the mixture was added to an 0.5×5.0 cm column containing 100-200 mesh Bio-Rex 5,chloride form (Bio-Rad), wetted with distilled water, as described by Alberts et al [J. Proc. Natl. Acad. Sci. U.S.A., 1980, 77, 3967]. The unreacted [^14 C]HMG-CoA was absorbed on the resin and the [^14 C]mevalonolactone was eluted with distilled water (2×1 ml) directly into 7-ml scintillation vials. Five milliliters of Aquasol-2 (New England Nuclear) was added to each vial, and radioactivity was measured in a Packard Tri Carb Prias scintillation counter. IC50 values were determined by plotting percentage inhibition against test compound concentration and fitting a straight line to the resulting data by using the least squares method. For estimation of relative inhibitory potencies, compactin was assigned a value of 100 and the IC50 value of the test compound was compared with that of compactin determined simultaneously.
As to `C[C@H]1C=C2C=C[C@H](C)[C@H](CC[C@@H](O)C[C@@H](O)CC(=O)O)[C@H]2[C@@H](OC(=O)C(C)(C)Cc2ccccc2)C1`, the “Relative Potency” value was found to be 173. Turning to `CCOc1ccc(C(C)(C)C(=O)O[C@H]2C[C@@H](C)C=C3C=C[C@H](C)[C@H](CC[C@@H](O)C[C@@H](O)CC(=O)O)[C@H]32)cc1`, the “Relative Potency” value worked out at 47. The same measure for `C[C@H]1C=C2C=C[C@H](C)[C@H](CC[C@@H](O)C[C@@H](O)CC(=O)O)[C@H]2[C@@H](OC(=O)C(C)(C)c2ccc(CO)cc2)C1`: 36. In the case of `COc1ccc(C(C)(C)C(=O)O[C@H]2C[C@@H](C)C=C3C=C[C@H](C)[C@H](CC[C@@H](O)C[C@@H](O)CC(=O)O)[C@H]32)cc1`, the “Relative Potency” value was found to be 144. `C[C@H]1C=C2C=C[C@H](C)[C@H](CC[C@@H](O)C[C@@H](O)CC(=O)O)[C@H]2[C@@H](OC(=O)C(C)(C)Cc2ccc(O)cc2)C1`: the “Relative Potency” value turned out to be 280.

For the compound `C[C@H]1C=C2C=C[C@H](C)[C@H](CC[C@@H](O)C[C@@H](O)CC(=O)O)[C@H]2[C@@H](OC(=O)C(C)(C)c2ccc(O)cc2)C1`, the “Relative Potency” value is 217. For `C[C@H]1C=C2C=C[C@H](C)[C@H](CC[C@@H](O)C[C@@H](O)CC(=O)O)[C@H]2[C@@H](OC(=O)C(C)(C)c2cccc(O)c2)C1`, the “Relative Potency” value was 197.

For `C[C@H]1C=C2C=C[C@H](C)[C@H](CC[C@@H](O)C[C@@H](O)CC(=O)O)[C@H]2[C@@H](OC(=O)C(C)(C)c2ccccc2)C1`, the “Relative Potency” value amounted to 88. For the compound `C[C@H]1C=C2C=C[C@H](C)[C@H](CC[C@@H](O)C[C@@H](O)CC(=O)O)[C@H]2[C@@H](OC(=O)C(C)(C)CCc2ccccc2)C1`, the “Relative Potency” value worked out at 100. Take `C[C@H]1C=C2C=C[C@H](C)[C@H](CC[C@@H](O)C[C@@H](O)CC(=O)O)[C@H]2[C@@H](OC(=O)C(C)(C)c2ccc(O)c(F)c2)C1`: the “Relative Potency” value was found to be 217. For the compound `C[C@H]1C=C2C=C[C@H](C)[C@H](CC[C@@H](O)C[C@@H](O)CC(=O)O)[C@H]2[C@@H](OC(=O)C(C)(C)Cc2cc(O)cc(O)c2)C1`, the “Relative Potency” value came out at 333.
